Laboratory results from patent US20220056037A1 (SPV THERAPEUTICS INC., priority 2018, published 2022).
Read-outs that look alike come from different tables or passages of the source.

Assays:
Assay in all cases: Inhibition assay, microfluidic LabChip (Nanosyn)
Type in all cases: biochemical
CDK7 CyclinH = CDK7 CyclinH (Homo sapiens, UniProt P50613);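 also: values are IC50 from a concentration-response series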
Description: (§1) The reaction was terminated by the addition of EDTA. The plates were analyzed using a Caliper LabChip 3000.
(§2) Additional inhibition assays were performed as described above.

CDK4-CYCLIND1 = target: T1, CDK4-CYCLIND1 (Homo sapiens, UniProt P11802)
T1 construct: purchased Invitrogen
T1 sequence (P11802 whole entry): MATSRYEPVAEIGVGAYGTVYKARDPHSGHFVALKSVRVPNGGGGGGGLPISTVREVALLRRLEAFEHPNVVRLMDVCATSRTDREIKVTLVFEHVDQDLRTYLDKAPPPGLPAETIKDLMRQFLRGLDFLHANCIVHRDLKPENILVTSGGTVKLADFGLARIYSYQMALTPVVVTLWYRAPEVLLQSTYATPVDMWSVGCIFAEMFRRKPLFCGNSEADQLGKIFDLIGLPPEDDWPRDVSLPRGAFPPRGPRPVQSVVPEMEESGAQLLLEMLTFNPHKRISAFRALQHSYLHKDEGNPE
T1 sequence (P24385 whole entry partner): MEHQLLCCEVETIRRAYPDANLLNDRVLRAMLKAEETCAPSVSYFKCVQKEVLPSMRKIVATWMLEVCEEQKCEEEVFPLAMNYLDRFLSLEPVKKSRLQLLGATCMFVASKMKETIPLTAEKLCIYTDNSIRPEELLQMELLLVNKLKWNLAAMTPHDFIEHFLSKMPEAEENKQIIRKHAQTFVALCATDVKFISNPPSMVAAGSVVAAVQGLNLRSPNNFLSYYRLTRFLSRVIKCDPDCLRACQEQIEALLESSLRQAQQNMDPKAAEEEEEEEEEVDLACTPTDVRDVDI
Description: as §1, §2

CDK9-CYCLINT1 = target: T2, CDK9-CYCLINT1 (Homo sapiens, UniProt P50750);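 also: values are IC50 from a concentration-response series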
T2 construct: purchased Carna
T2 sequence (P50750 whole entry): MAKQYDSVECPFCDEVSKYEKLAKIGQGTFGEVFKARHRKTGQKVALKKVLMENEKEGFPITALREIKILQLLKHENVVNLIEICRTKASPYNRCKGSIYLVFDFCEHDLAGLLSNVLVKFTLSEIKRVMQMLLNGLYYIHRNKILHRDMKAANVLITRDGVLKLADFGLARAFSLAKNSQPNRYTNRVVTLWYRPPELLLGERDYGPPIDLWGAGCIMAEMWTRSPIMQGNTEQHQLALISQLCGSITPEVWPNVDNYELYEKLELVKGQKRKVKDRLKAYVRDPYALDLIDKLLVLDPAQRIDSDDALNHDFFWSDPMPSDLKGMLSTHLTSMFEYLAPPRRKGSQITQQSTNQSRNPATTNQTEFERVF
T2 sequence (O60563 whole entry partner): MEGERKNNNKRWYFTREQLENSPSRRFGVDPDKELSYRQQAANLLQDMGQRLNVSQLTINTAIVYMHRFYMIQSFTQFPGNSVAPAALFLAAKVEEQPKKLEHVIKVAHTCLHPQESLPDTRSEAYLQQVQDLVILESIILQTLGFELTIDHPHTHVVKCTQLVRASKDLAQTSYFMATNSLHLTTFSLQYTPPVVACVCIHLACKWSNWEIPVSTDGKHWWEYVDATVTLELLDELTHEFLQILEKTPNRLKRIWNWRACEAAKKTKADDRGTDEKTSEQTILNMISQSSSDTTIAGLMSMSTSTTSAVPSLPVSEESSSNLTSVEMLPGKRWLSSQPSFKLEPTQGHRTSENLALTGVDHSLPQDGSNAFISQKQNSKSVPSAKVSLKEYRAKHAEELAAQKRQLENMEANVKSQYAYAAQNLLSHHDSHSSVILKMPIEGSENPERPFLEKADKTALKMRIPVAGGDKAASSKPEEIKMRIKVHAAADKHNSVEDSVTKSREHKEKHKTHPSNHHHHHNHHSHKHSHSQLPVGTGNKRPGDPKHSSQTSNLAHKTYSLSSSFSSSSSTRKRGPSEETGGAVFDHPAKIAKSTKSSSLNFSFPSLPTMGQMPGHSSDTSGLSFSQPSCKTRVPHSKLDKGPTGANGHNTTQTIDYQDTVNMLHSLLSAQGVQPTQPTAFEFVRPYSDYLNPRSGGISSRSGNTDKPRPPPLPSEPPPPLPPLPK
Description: as §1, §2

CDK2-CYCLINA = target: T3, CDK2-CYCLINA (Homo sapiens, UniProt P24941);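 also: values are IC50 from a concentration-response series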
T3 construct: purchased Millipore
Description: as §1, §2

CDK6-CYCLIND3 = target: T4, CDK6-CYCLIND3 (Homo sapiens, UniProt Q00534)
T4 construct: purchased Carna
T4 sequence (Q00534 whole entry): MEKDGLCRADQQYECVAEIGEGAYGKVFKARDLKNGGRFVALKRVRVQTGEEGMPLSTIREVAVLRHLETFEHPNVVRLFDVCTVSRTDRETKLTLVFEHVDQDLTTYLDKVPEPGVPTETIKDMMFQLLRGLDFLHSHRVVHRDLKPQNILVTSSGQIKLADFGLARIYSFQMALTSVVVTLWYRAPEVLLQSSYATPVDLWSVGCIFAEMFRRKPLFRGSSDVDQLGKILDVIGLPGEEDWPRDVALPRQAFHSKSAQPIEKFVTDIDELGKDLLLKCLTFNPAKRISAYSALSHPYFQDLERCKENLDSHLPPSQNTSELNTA
T4 sequence (P30281 whole entry partner): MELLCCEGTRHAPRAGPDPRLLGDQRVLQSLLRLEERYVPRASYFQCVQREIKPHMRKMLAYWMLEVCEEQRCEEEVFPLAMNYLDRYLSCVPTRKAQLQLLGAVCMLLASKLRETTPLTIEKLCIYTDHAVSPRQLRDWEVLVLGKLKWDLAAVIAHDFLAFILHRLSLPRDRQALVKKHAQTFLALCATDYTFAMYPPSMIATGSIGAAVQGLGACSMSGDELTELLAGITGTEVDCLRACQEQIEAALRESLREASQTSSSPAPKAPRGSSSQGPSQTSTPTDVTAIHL
Description: as §1, §2

[1] = Table 3a, read-out: CDK4 CyclinD1 IC50
[2] = Table 3b, read-out: CDK4 CyclinD1 IC50
[3] = Table 3a, read-out: CDK6 CyclinD3 IC50
[4] = Table 3b, read-out: CDK6 CyclinD3 IC50
[5] = Table 2, ATP 200 μM, read-out: CDK4 IC50
[6] = Table 2, ATP 300 μM, read-out: CDK6 IC50

Sequence of CDK7 CyclinH (P50613 whole entry): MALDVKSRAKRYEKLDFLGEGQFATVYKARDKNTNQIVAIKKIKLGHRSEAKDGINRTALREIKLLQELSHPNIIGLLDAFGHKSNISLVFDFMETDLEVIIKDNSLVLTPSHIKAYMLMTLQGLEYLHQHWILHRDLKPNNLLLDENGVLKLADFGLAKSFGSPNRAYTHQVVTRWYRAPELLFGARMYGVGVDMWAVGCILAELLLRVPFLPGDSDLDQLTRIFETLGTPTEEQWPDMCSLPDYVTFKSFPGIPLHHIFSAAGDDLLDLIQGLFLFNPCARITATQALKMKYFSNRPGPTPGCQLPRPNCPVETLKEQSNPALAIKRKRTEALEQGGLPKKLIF
Sequence of CDK7 CyclinH (P51946 whole entry partner): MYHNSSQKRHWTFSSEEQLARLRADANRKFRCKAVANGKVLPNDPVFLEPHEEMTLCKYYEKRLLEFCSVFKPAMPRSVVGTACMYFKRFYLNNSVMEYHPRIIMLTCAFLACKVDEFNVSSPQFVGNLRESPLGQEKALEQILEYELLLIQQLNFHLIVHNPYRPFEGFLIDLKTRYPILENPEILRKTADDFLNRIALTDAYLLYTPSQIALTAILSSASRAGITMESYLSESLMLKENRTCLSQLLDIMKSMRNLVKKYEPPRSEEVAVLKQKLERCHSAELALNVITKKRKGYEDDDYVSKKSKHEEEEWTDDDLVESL
Sequence of CDK7 CyclinH (P51948 whole entry partner): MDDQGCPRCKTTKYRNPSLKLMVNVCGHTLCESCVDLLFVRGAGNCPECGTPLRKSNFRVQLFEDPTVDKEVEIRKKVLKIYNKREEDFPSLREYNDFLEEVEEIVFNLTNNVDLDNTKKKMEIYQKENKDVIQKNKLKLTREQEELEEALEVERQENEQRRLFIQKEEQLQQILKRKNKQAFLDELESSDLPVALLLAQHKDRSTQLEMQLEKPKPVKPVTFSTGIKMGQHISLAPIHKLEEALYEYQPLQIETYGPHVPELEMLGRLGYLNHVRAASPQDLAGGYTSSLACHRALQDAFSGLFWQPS

Work on `CN1CCN(c2ccc(Nc3ncc4cc(C(=O)N(C)C)n(C56CC(C5)C6)c4n3)cc2)CC1` [Compound A84, 7-(bicyclo[1.1.1]pentan-1-yl)-N,N-dimethyl-2-((4-(4-methylpiperazin-1-yl)phenyl)amino)-7H-pyrrolo[2,3-d]pyrimidine-6-carboxamide] yielded an IC50 (CDK7 CyclinH; Table 3a) of 1.43 µM, an IC50 (CDK7 CyclinH; Table 3b) of 1.43 µM and an IC50 (CDK4-CYCLIND1; [1]) of 0.00244 µM. For the same compound, the IC50 (CDK4-CYCLIND1; [2]) was 0.00244 µM, the IC50 (CDK9-CYCLINT1; Table 3a) was 0.00584 µM and the IC50 (CDK9-CYCLINT1; Table 3b) was 0.00584 µM. It also gave an IC50 (CDK2-CYCLINA; Table 3a) of 0.185 µM, an IC50 (CDK2-CYCLINA; Table 3b) of 0.185 µM and an IC50 (CDK6-CYCLIND3; [3]) of 0.0061 µM. For the same compound, the IC50 (CDK6-CYCLIND3; [4]) was 0.0061 µM.
`CN(C)C(=O)c1cc2cnc(Nc3ccc(C4=CCNCC4)cn3)nc2n1C12CC(C1)C2` [Compound A87, 7-(bicyclo[1.1.1]pentan-1-yl)-N,N-dimethyl-2-((1′,2′,3′,6′-tetrahydro-[3,4′-bipyridin]-6-yl)amino)-7H-pyrrolo[2,3-d]pyrimidine-6-carboxamide] gave an IC50 (CDK7 CyclinH; Table 3a) of over 100 µM, an IC50 (CDK7 CyclinH; Table 3b) of over 100 µM and an IC50 (CDK4-CYCLIND1; [1]) of 0.0252 µM. For the same compound, the IC50 (CDK4-CYCLIND1; [2]) was 0.0252 µM, the IC50 (CDK9-CYCLINT1; Table 3a) was 0.553 µM and the IC50 (CDK2-CYCLINA; Table 3a) was 50 µM. The IC50 (CDK2-CYCLINA; Table 3b) was 50 µM, the IC50 (CDK6-CYCLIND3; [3]) was 0.02 µM and the IC50 (CDK6-CYCLIND3; [4]) was 0.02 µM.
`CN(C)C(=O)c1cc2cnc(Nc3ccc(N4CC5(CNC5)C4)cc3)nc2n1C12CC(C1)C2` [Compound A48, 2-((4-(2,6-diazaspiro[3.3]heptan-2-yl)phenyl)amino)-7-(bicyclo[1.1.1]pentan-1-yl)-N,N-dimethyl-7H-pyrrolo[2,3-d]pyrimidine-6-carboxamide] was tested, and the IC50 (CDK7 CyclinH; Table 3a) was 4.86 µM, the IC50 (CDK7 CyclinH; Table 3b) was 4.86 µM and the IC50 (CDK4-CYCLIND1; [1]) was 0.0164 µM. For the same compound, the IC50 (CDK4-CYCLIND1; [2]) was 0.0164 µM, the IC50 (CDK9-CYCLINT1; Table 3a) was 0.0149 µM and the IC50 (CDK2-CYCLINA; Table 3a) was 0.666 µM. For the same compound, the IC50 (CDK2-CYCLINA; Table 3b) was 0.666 µM, the IC50 (CDK6-CYCLIND3; [3]) was 0.044 µM and the IC50 (CDK6-CYCLIND3; [4]) was 0.044 µM.
`CN(C)C(=O)c1cc2cnc(NC3CCN(S(C)(=O)=O)CC3)nc2n1C12CC(C1)C2` [Compound A75, 7-(bicyclo[1.1.1]pentan-1-yl)-N,N-dimethyl-2-((1-(methylsulfonyl)piperidin-4-yl)amino)-7H-pyrrolo[2,3-d]pyrimidine-6-carboxamide] gave an IC50 (CDK7 CyclinH; Table 3a) of 8.13 µM, an IC50 (CDK7 CyclinH; Table 3b) of 8.13 µM and an IC50 (CDK9-CYCLINT1; Table 3a) of 0.0114 µM.
Work on `CN(C)C(=O)c1cc2cnc(Nc3ccc(N4CCNCC4)c(F)c3)nc2n1C12CC(C1)C2` [Compound A85, 7-(bicyclo[1.1.1]pentan-1-yl)-2-((3-fluoro-4-(piperazin-1-yl)phenyl)amino)-N,N-dimethyl-7H-pyrrolo[2,3-d]pyrimidine-6-carboxamide] yielded an IC50 (CDK7 CyclinH; Table 3a) of 1.14 µM, an IC50 (CDK7 CyclinH; Table 3b) of 1.14 µM and an IC50 (CDK2-CYCLINA; Table 3a) of 0.162 µM. It also gave an IC50 (CDK2-CYCLINA; Table 3b) of 0.162 µM.
`CN(C)C(=O)c1cc2cnc(Nc3ccc(N4CCNCC4)cn3)nc2n1C12CC(C1)C2` [Compound A86, 7-(bicyclo[1.1.1]pentan-1-yl)-N,N-dimethyl-2-((5-(piperazin-1-yl)pyridin-2-yl)amino)-7H-pyrrolo[2,3-d]pyrimidine-6-carboxamide] gave an IC50 (CDK7 CyclinH; Table 3a) of 27.4 µM, an IC50 (CDK7 CyclinH; Table 3b) of 27.4 µM and an IC50 (CDK4-CYCLIND1; [1]) of 0.016 µM. For the same compound, the IC50 (CDK4-CYCLIND1; [2]) was 0.016 µM, the IC50 (CDK9-CYCLINT1; Table 3a) was 0.67 µM and the IC50 (CDK2-CYCLINA; Table 3a) was 18.9 µM. The IC50 (CDK2-CYCLINA; Table 3b) was 18.9 µM, the IC50 (CDK6-CYCLIND3; [3]) was 0.0201 µM and the IC50 (CDK6-CYCLIND3; [4]) was 0.0201 µM.
In the case of `CN(C)C(=O)c1cc2cnc(Nc3ccc(N4CC5(CNC5)C4)c(F)c3)nc2n1C12CC(C1)C2` [Compound A47, 7-(bicyclo[1.1.1]pentan-1-yl)-2-((3-fluoro-4-(2,6-diazaspiro[3.3]heptan-2-yl)phenyl)amino)-N,N-dimethyl-7H-pyrrolo[2,3-d]pyrimidine-6-carboxamide], the IC50 (CDK4-CYCLIND1; [5]) is reported as 0.00522 µM and the IC50 (CDK6-CYCLIND3; [6]) is reported as 0.0165 µM.
For `CC(C)N1CCN(c2ccc(Nc3ncc4cc(C(=O)N(C)C)n(C5CCCC5)c4n3)cc2F)CC1` [Compound A11, 7-cyclopentyl-2-((3-fluoro-4-(4-isopropylpiperazin-1-yl)phenyl)amino)-N,N-dimethyl-7H-pyrrolo[2,3-d]pyrimidine-6-carboxamide], the IC50 (CDK4-CYCLIND1; [5]) was 0.00388 µM and the IC50 (CDK6-CYCLIND3; [6]) was 0.012 µM.
Compound `CN(C)C(=O)c1c(F)c2cnc(Nc3cc(C(F)(F)F)c(N4CCNCC4)cn3)nc2n1C1CCCC1` [Compound A25, 7-cyclopentyl-5-fluoro-N,N-dimethyl-2-((5-(piperazin-1-yl)-4-(trifluoromethyl)pyridin-2-yl)amino)-7H-pyrrolo[2,3-d]pyrimidine-6-carboxamide] has an IC50 (CDK4-CYCLIND1; [5]) of 2.29 µM and an IC50 (CDK6-CYCLIND3; [6]) of 4.86 µM.
`CN(C)CCOc1ccc(Nc2ncc3cc(C(=O)N(C)C)n(C45CC(C4)C5)c3n2)nc1` [Compound A15, 7-(bicyclo[1.1.1]pentan-1-yl)-2-((5-(2-(dimethylamino)ethoxy)pyridin-2-yl)amino)-N,N-dimethyl-7H-pyrrolo[2,3-d]pyrimidine-6-carboxamide] gave an IC50 (CDK4-CYCLIND1; [5]) of 0.0315 µM and an IC50 (CDK6-CYCLIND3; [6]) of 0.0238 µM.
`CN1CCN(c2cnc(Nc3ncc4c(F)c(C(=O)N(C)C)n(C5CCCC5)c4n3)cc2C(F)(F)F)CC1` [Compound A18, 7-cyclopentyl-5-fluoro-N,N-dimethyl-2-((5-(4-methylpiperazin-1-yl)-4-(trifluoromethyl)pyridin-2-yl)amino)-7H-pyrrolo[2,3-d]pyrimidine-6-carboxamide] showed an IC50 (CDK4-CYCLIND1; [5]) of 2.74 µM and an IC50 (CDK6-CYCLIND3; [6]) of 12.6 µM.
`CN(C)C(=O)c1cc2cnc(Nc3ccc(N4CCNCC4)c(F)c3)nc2n1C12CC(C1)C2` [Compound A17, 7-(bicyclo[1.1.1]pentan-1-yl)-2-((3-fluoro-4-(piperazin-1-yl)phenyl)amino)-N,N-dimethyl-7H-pyrrolo[2,3-d]pyrimidine-6-carboxamide] showed an IC50 (CDK4-CYCLIND1; [5]) of 0.00304 µM and an IC50 (CDK6-CYCLIND3; [6]) of 0.00804 µM.
For `CN(C)C(=O)c1cc2cnc(Nc3ccc(OCCN4CCCC4)nc3)nc2n1C1CCCC1` [Compound A8, 7-cyclopentyl-N,N-dimethyl-2-((6-(2-(pyrrolidin-1-yl)ethoxy)pyridin-3-yl)amino)-7H-pyrrolo[2,3-d]pyrimidine-6-carboxamide], the IC50 (CDK4-CYCLIND1; [5]) was 0.00498 µM and the IC50 (CDK6-CYCLIND3; [6]) was 0.0236 µM.
`CN(C)CCOc1ccc(Nc2ncc3cc(C(=O)N(C)C)n(C4CCCC4)c3n2)nc1` [Compound A4, 7-cyclopentyl-2-((5-(2-(dimethylamino)ethoxy)pyridin-2-yl)amino)-N,N-dimethyl-7H-pyrrolo[2,3-d]pyrimidine-6-carboxamide] was tested, and the IC50 (CDK4-CYCLIND1; [5]) was 0.0189 µM and the IC50 (CDK6-CYCLIND3; [6]) was 0.0349 µM.
Work on `CN(C)C(=O)c1cc2cnc(Nc3ccc(OCCN4CCCC4)cn3)nc2n1C1CCCC1` [Compound A5, 7-cyclopentyl-N,N-dimethyl-2-((5-(2-(pyrrolidin-1-yl)ethoxy)pyridin-2-yl)amino)-7H-pyrrolo[2,3-d]pyrimidine-6-carboxamide] yielded an IC50 (CDK4-CYCLIND1; [5]) of 0.0193 µM and an IC50 (CDK6-CYCLIND3; [6]) of 0.0506 µM.
`CN(C)C(=O)c1cc2cnc(Nc3ccc(N4CCN5CCC4CC5)cn3)nc2n1C1CCCC1` [Compound A9, 2-((5-(1,4-diazabicyclo[3.2.2]nonan-4-yl)pyridin-2-yl)amino)-7-cyclopentyl-N,N-dimethyl-7H-pyrrolo[2,3-d]pyrimidine-6-carboxamide] showed an IC50 (CDK4-CYCLIND1; [5]) of 0.021 µM and an IC50 (CDK6-CYCLIND3; [6]) of 0.0549 µM.
`CN1CCN(c2ccc(Nc3ncc4c(F)c(C(=O)N(C)C)n(C5CCCC5)c4n3)cc2)CC1` [Compound A19, 7-cyclopentyl-5-fluoro-N,N-dimethyl-2-((4-(4-methylpiperazin-1-yl)phenyl)amino)-7H-pyrrolo[2,3-d]pyrimidine-6-carboxamide] gave an IC50 (CDK4-CYCLIND1; [5]) of 0.0154 µM and an IC50 (CDK6-CYCLIND3; [6]) of 0.0453 µM.
For `CN1CCN(c2ccc(Nc3ncc4c(F)c(C(=O)N(C)C)n(C5CCCC5)c4n3)cn2)CC1` [Compound A28, 7-cyclopentyl-5-fluoro-N,N-dimethyl-2-((6-(4-methylpiperazin-1-yl)pyridin-3-yl)amino)-7H-pyrrolo[2,3-d]pyrimidine-6-carboxamide], the IC50 (CDK4-CYCLIND1; [5]) was 0.0266 µM and the IC50 (CDK6-CYCLIND3; [6]) was 0.0819 µM.
Compound `CN(C)C(=O)c1cc2cnc(Nc3ccc(N4CC5(CNC5)C4)nc3)nc2n1C12CC(C1)C2` [Compound A46, 2-((6-(2,6-diazaspiro[3.3]heptan-2-yl)pyridin-3-yl)amino)-7-(bicyclo[1.1.1]pentan-1-yl)-N,N-dimethyl-7H-pyrrolo[2,3-d]pyrimidine-6-carboxamide] has an IC50 (CDK4-CYCLIND1; [5]) of 0.0126 µM and an IC50 (CDK6-CYCLIND3; [6]) of 0.0282 µM.
Work on `CN(C)C(=O)c1cc2cnc(Nc3ccc(N4CCOCC4)c(F)c3)nc2n1C12CC(C1)C2` [Compound A42, 7-(bicyclo[1.1.1]pentan-1-yl)-2-((3-fluoro-4-morpholinophenyl)amino)-N,N-dimethyl-7H-pyrrolo[2,3-d]pyrimidine-6-carboxamide] yielded an IC50 (CDK4-CYCLIND1; [5]) of 0.015 µM and an IC50 (CDK6-CYCLIND3; [6]) of 0.0434 µM.
In the case of `CCN1CCN(Cc2ccc(Nc3ncc4cc(C(=O)N(C)C)n(C56CC(C5)C6)c4n3)nc2)CC1` [Compound A41, 7-(bicyclo[1.1.1]pentan-1-yl)-2-((5-((4-ethylpiperazin-1-yl)methyl)pyridin-2-yl)amino)-N,N-dimethyl-7H-pyrrolo[2,3-d]pyrimidine-6-carboxamide], the IC50 (CDK4-CYCLIND1; [5]) is reported as 0.0214 µM and the IC50 (CDK6-CYCLIND3; [6]) is reported as 0.0402 µM.
For `CN1CCN(c2ccc(Nc3ncc4cc(C(=O)N(C)C)n(C56CC(C5)C6)c4n3)cc2F)CC1` [Compound A40, 7-(bicyclo[1.1.1]pentan-1-yl)-2-((3-fluoro-4-(4-methylpiperazin-1-yl)phenyl)amino)-N,N-dimethyl-7H-pyrrolo[2,3-d]pyrimidine-6-carboxamide], the IC50 (CDK4-CYCLIND1; [5]) was 0.00516 µM and the IC50 (CDK6-CYCLIND3; [6]) was 0.0173 µM.
With `CN(C)C(=O)c1c(F)c2cnc(N3CCN(c4ccc(C#N)cc4)CC3)nc2n1C1CCCC1` [Compound A29, 2-(4-(4-cyanophenyl)piperazin-1-yl)-7-cyclopentyl-5-fluoro-N,N-dimethyl-7H-pyrrolo[2,3-d]pyrimidine-6-carboxamide] the IC50 (CDK4-CYCLIND1; [5]) was over 30 µM and the IC50 (CDK6-CYCLIND3; [6]) was over 30 µM.
With `CN(C)C(=O)c1c(F)c2cnc(Nc3ccc(OCCN4CCCCC4)nc3)nc2n1C1CCCC1` [Compound A27, 7-cyclopentyl-5-fluoro-N,N-dimethyl-2-((6-(2-(piperidin-1-yl)ethoxy)pyridin-3-yl)amino)-7H-pyrrolo[2,3-d]pyrimidine-6-carboxamide] the IC50 (CDK4-CYCLIND1; [5]) was 0.0396 µM and the IC50 (CDK6-CYCLIND3; [6]) was 0.116 µM.
